Source: patent US4107165A, “Tris[tetrahydroisoquinoline] compounds” (Endo Laboratories, priority 1976, dated 1978)
≈ marks a conversion by molar mass, not a printed value. Structures can show the parent of a compound that is named as a salt.

system: whole blood clot; assay: whole blood clot lysis method (fibrinolytic activity), blood from rats given compound intraperitoneally; type: in vivo; conditions: Rattus norvegicus, ip, 4 h, intraperitoneal, blood diluted 1:10, clotted with thrombin, 37° C, four hours, read-out: ED50 (dose which causes lysis of 50% of the clot)
Method: Certain representative compounds within the scope of the present invention have been tested for fibrinolytic activity by the whole blood clot lysis method, as modified from the procedure of Billimoria et al.^1 In this method, blood from rats given a fibrinolytic compound intraperitoneally is taken and diluted 1:10. A standard amount is clotted with thrombin, incubated at 37° C for four hours, and the amount of clot that has lysed is determined. […] These ED50 values for the various compounds tested are set forth in the following table, each of the compounds being identified by name and by the number of the ensuing example in which its synthesis is described. […] ^1 Billimoria, […]., James, […]., Lancet II, 471 (1959)

Compound | ED50
COc1cc2c(cc1OC)C(CCCC(CCCC(CCCC1NCCc3cc(OC)c(OC)cc31)C1NCCc3cc(OC)c(OC)cc31)C1NCCc3cc(OC)c(OC)cc31)NCC2.Cl.Cl.Cl.Cl.O.O.O.O (centres unmarked) [Example 2.1, 1,1',1",1'"-(1,4,8,11-Undecanetetrayl)tetrakis[1,2,3,4-tetrahydro-6,7-dimethoxyisoquinoline] tetrahydrochloride tetrahydrate] | 0.03 mg/kg
COc1cc2c(cc1OC)C(CCC(CCC(CCC1NCCc3cc(OC)c(OC)cc31)CCC1NCCc3cc(OC)c(OC)cc31)CCC1NCCc3cc(OC)c(OC)cc31)NCC2.Cl.Cl.Cl.Cl.O.O.O.O (centres unmarked) [Example 5.1, 1,1'-{3,6-bis[2-(1,2,3,4-tetrahydro-6,7-dimethoxy-1-isoquinolinyl)ethyl]-octamethylene}bis[1,2,3,4-tetrahydro-6,7-dimethoxyisoquinoline] tetrahydrochloride tetrahydrate] | 0.06 mg/kg
COc1cc2c(cc1OC)C(CCCCC(SCC1NCCc3cc(OC)c(OC)cc31)C1NCCc3cc(OC)c(OC)cc31)NCC2 (centres unmarked) [Example 6.1, 1,1'-[1-[(1,2,3,4-tetrahydro-6,7-dimethoxy-1-isoquinolinylmethyl)thio]pentamethylene]bis[1,2,3,4-tetrahydro-6,7-dimethoxyisoquinoline]] | < 0.6 mg/kg
COc1cc2c(cc1OC)C(CCC(CCC(CC1NCCc3cc(OC)c(OC)cc31)c1ccccc1)CCC1NCCc3cc(OC)c(OC)cc31)NCC2 (centres unmarked) [Example 7.1, 1,1'-{2-phenyl-5-[2-(1,2,3,4-tetrahydro-6,7-dimethoxy-1-isoquinolinyl)ethyl]heptamethylene}bis[1,2,3,4-tetrahydro-6,7-dimethoxyisoquinoline]] | < 0.1 mg/kg
COc1cc2c(cc1OC)C(CCC(CCC1NCCc3cc(OC)c(OC)cc31)CCC(C)(C)CC1NCCc3cc(OC)c(OC)cc31)NCC2 (centres unmarked) [Example 8.1, 1,1'-{2,2-dimethyl-5-[2-(1,2,3,4-tetrahydro-6,7-dimethoxy-1-isoquinolinyl)ethyl]heptamethylene}bis[1,2,3,4-tetrahydro-6,7-dimethoxyisoquinoline]] | < 0.4 mg/kg
COc1ccc2c(c1)CCNC2CCCCC(CCC1NCCc2cc(OC)ccc21)CCC1NCCc2cc(OC)ccc21 (centres unmarked) [Example 10.1, 1,1'-{3-[2-(1,2,3,4-tetrahydro-6-methoxy-1-isoquinolinyl)ethyl]heptamethylene}bis[1,2,3,4-tetrahydro-6-methoxyisoquinoline]] | 0.5 mg/kg
COc1cc2c(cc1OC)C(CCCCC(CCCCC(CCCCC1NCCc3cc(OC)c(OC)cc31)C1NCCc3cc(OC)c(OC)cc31)C1NCCc3cc(OC)c(OC)cc31)NCC2 (centres unmarked) [Example 15.1, 1,1',1",1'"-(1,5,10,14-tetradecanetetrayl)tetrakis[1,2,3,4-tetrahydro-6,7-dimethoxyisoquinoline]] | 0.04 mg/kg
COc1cc2c(cc1OC)C(CCCC(CCCCC(CCCC1NCCc3cc(OC)c(OC)cc31)C1NCCc3cc(OC)c(OC)cc31)C1NCCc3cc(OC)c(OC)cc31)NCC2 (centres unmarked) [Example 16.1, 1,1',1",1'"-(1,4,9,12-dodecanetetrayl)tetrakis[1,2,3,4-tetrahydro-6,7-dimethoxyisoquinoline]] | 0.03 mg/kg
COc1cc2c(cc1OC)C(CCOCC(COCCC1NCCc3cc(OC)c(OC)cc31)OCCC1NCCc3cc(OC)c(OC)cc31)NCC2.Cl.Cl.Cl (centres unmarked) [Example 17.1, 1,1',1"-[1,2,3-PROPANETRIYLTRI-(OXYETHYLENE)]TRIS[1,2,3,4-TETRAHYDRO-6,7-DIMETHOXYISOQUINOLINE] TRIHYDROCHLORIDE] | 0.8 mg/kg
COc1cc2c(cc1OC)C(CCN(CCC1NCCc3cc(OC)c(OC)cc31)CCC1NCCc3cc(OC)c(OC)cc31)NCC2 (centres unmarked) [Example 17.3, 1,1',1"-(nitrilotriethylene)tris[1,2,3,4-tetrahydro-6,7-dimethoxyisoquinoline]] | 0.7 mg/kg
COc1cc2c(cc1OC)C(CCC(CCC1NCCc3cc(OC)c(OC)cc31)(CCC1NCCc3cc(OC)c(OC)cc31)[N+](=O)[O-])NCC2 (centres unmarked) [Example 18.1, 1,1'-{3-nitro-3-[2-(1,2,3,4-tetrahydro-6,7-dimethoxy-1-isoquinolinyl)ethyl]pentamethylene}bis[1,2,3,4-tetrahydro-6,7-dimethoxyisoquinoline]] | < 0.6 mg/kg
COc1cc2c(cc1OC)C(CCCC(CCCC1NCCc3cc(OC)c(OC)cc31)C1NCCc3cc(OC)c(OC)cc31)NCC2.Cl.Cl.Cl.O.O.O (centres unmarked) [Example 19.1, 1,1',1"-(1,4,7-HEPTANETRIYL)TRIS[1,2,3,4-TETRAHYDRO-6,7-DIMETHOXYISOQUINOLINE] TRIHYDROCHLORIDE TRIHYDRATE] | 0.03 mg/kg
COc1cc2c(cc1OC)[C@H](CCCC[C@H]1NCCc3cc(OC)c(OC)cc31)NCC2 [bisobrin dihydrochloride, 1,1'-tetramethylenebis[1,2,3,4-tetrahydro-6,7-dimethoxyisoquinoline], reference compound] | 0.5 mg/kg

system: ADP-induced platelet aggregation; assay: inhibition of ADP-induced platelet aggregation in platelet rich plasma; type: cell-based; conditions: 5 min; human platelet rich plasma, 37° C, five minutes incubation prior to ADP; read-out: ED50 (amount which reduces platelet aggregation by 50%)
Method: Another selection of representative compounds within the scope of the present invention, including some listed in the previous table, have been tested for their ability to inhibit platelet aggregation. Citrated whole blood from human volunteers, who had not taken any medicine for the previous week, was centrifuged to obtain platelet rich plasma. On addition of ADP (adenosine diphosphate) to this platelet rich plasma, incubated at 37° C with constant stirring, in an aggregometer, optical density changes can be observed which are caused by platelet aggregation. Thus, the extent of ADP-induced platelet aggregation is determined for each sample of blood used. Compounds to be tested were incubated for five minutes prior to the addition of ADP. The ED50 of a compound is that amount, in γ/ml, which reduces platelet aggregation by 50% under the above conditions.

IC50 | Compound
< 40 µg/mL | COc1cc2c(cc1OC)C(CCCCC(CCC1=NCCc3cc(OC)c(OC)cc31)CCC1=NCCc3cc(OC)c(OC)cc31)=NCC2.Cl.Cl.Cl.O.O.O [Example 1.1a, 1,1'-{3-[2-(3,4-dihydro-6,7-dimethoxy-1-isoquinolinyl)ethyl]heptamethylene}bis[3,4-dihydro-6,7-dimethoxyisoquinoline] trihydrochloride trihydrate]
< 40 µg/mL | COc1cc2c(cc1OC)C(CCC(CCC1=NCCc3cc(OC)c(OC)cc31)CCC(CC1=NCCc3cc(OC)c(OC)cc31)c1ccccc1)=NCC2.Cl.Cl.Cl.O.O.O (centres unmarked) [Example 7.1a, 1,1'-{5-[2-(3,4-dihydro-6,7-dimethoxy-1-isoquinolinyl)ethyl]-2-phenylheptamethylene}bis[3,4-dihydro-6,7-dimethoxyisoquinoline] trihydrochloride trihydrate]
27 µg/mL | COc1cc2c(cc1OC)C(CCCCC(CCCCC(CCCCC1=NCCc3cc(OC)c(OC)cc31)C1=NCCc3cc(OC)c(OC)cc31)C1=NCCc3cc(OC)c(OC)cc31)=NCC2.Cl.Cl.Cl.Cl.O.O.O.O (centres unmarked) [Example 15.1a, 1,1',1",1'"-(1,5,10,14-tetradecanetetrayl)tetrakis[3,4-dihydro-6,7-dimethoxyisoquinoline] tetrahydrochloride tetrahydrate]
< 40 µg/mL | COc1cc2c(cc1OC)C(CCOCC(COCCC1=NCCc3cc(OC)c(OC)cc31)OCCC1=NCCc3cc(OC)c(OC)cc31)=NCC2 [Example 17.1a, 1,1',1"-[1,2,3-propanetriyltri(oxyethylene)]tris[3,4-dihydro-6,7-dimethoxyisoquinoline]]
9 µg/mL (≈ 12.5 µM) | COc1cc2c(cc1OC)C(CCC(CCC1NCCc3cc(OC)c(OC)cc31)(CCC1NCCc3cc(OC)c(OC)cc31)[N+](=O)[O-])NCC2 (centres unmarked) [Example 18.1, 1,1'-{3-nitro-3-[2-(1,2,3,4-tetrahydro-6,7-dimethoxy-1-isoquinolinyl)ethyl]pentamethylene}bis[1,2,3,4-tetrahydro-6,7-dimethoxyisoquinoline]]
6 µg/mL | COc1cc2c(cc1OC)C(CCC(CCC1=NCCc3cc(OC)c(OC)cc31)(CCC1=NCCc3cc(OC)c(OC)cc31)[N+](=O)[O-])=NCC2.Cl.Cl.Cl [Example 18.1a, 1,1'-{3-[2-(3,4-dihydro-6,7-dimethoxy-1-isoquinolinyl)ethyl] -3-nitropentamethylene}bis[3,4-dihydro-6,7-dimethoxyisoquinoline] trihydrochloride]
< 40 µg/mL | COc1cc2c(cc1OC)C(CCCC(CCCC1=NCCc3cc(OC)c(OC)cc31)C1=NCCc3cc(OC)c(OC)cc31)=NCC2 [Example 19.1a, 1,1',1"-(1,4,7-heptanetriyl)tris[3,4-dihydro-6,7-dimethoxyisoquinoline]]
270 µg/mL (≈ 535 µM) | OCCN(CCO)c1nc(N2CCCCC2)c2nc(N(CCO)CCO)nc(N3CCCCC3)c2n1 [dipyridamole, 2,2',2",2'"-[(4,8-dipiperidinopyrimido[5,4-d]pyrimidine-2,6-diyl)dinitrilo]tetraethanol, reference compound]

system: fibrinolytic activity; assay: not given; conditions: prior art; cited from earlier work

Compound | fibrinolytic activity in vivo
CNC[C@H](O)c1ccc(O)c(O)c1 [epinephrine] | Fibrinolytic activity in vivo can be induced
NCCc1c[nH]cn1 [histamine] | Fibrinolytic activity in vivo can be induced
O=C(O)c1cccnc1 [nicotinic acid] | Fibrinolytic activity in vivo can be induced
CCCCC1C(=O)N(c2ccccc2)N(c2ccccc2)C1=O [phenylbutazone] | Fibrinolytic activity in vivo can be induced
CCN(CC)CCOC(=O)c1ccc(N)cc1 [procaine] | Fibrinolytic activity in vivo can be induced
NCCc1c[nH]c2ccc(O)cc12 [serotonin] | Fibrinolytic activity in vivo can be induced

system: not given; assay: not given; conditions: prior art; cited from earlier work

Compound | side effects in thrombolysis
Streptokinase: a streptococcal protein, has been used for thrombolysis | side effects of pyrogenicity and anaphylactic reactions

system: ADP-induced platelet aggregation and experimental thrombosis; assay: not given; conditions: literature; cited from earlier work

Compound | effect against ADP-induced platelet aggregation and experimental thrombosis
OCCN(CCO)c1nc(N2CCCCC2)c2nc(N(CCO)CCO)nc(N3CCCCC3)c2n1 [dipyridamole, 2,2',2",2'"-[(4,8-dipiperidinopyrimido[5,4-d]pyrimidine-2,6-diyl)dinitrilo]tetraethanol, reference compound] | generally recognized as being effective against ADP-induced platelet aggregation and experimental thrombosis
